From patent publication EP0307172A2, “Improvements in or relating to specific 5-HT3 antagonists” (ELI LILLY AND COMPANY, priority 1987, dated 1989)

Target: T1, 5-HT₃ receptor (Rattus norvegicus, UniProt P35563)
T1 construct: from tissue
T1 sequence (P35563 24-483): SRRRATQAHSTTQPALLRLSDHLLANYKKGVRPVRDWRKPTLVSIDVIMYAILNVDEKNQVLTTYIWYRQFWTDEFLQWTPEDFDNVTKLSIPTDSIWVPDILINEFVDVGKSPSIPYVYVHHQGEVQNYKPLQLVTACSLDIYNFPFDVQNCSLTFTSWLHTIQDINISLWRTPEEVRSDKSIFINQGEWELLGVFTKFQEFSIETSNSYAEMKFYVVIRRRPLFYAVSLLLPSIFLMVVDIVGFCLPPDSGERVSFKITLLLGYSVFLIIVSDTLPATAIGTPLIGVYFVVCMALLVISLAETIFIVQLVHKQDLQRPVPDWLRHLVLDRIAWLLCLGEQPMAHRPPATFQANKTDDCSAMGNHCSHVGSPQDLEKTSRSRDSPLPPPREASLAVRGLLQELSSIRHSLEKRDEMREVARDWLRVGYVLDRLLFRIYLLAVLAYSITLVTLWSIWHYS
Assay: Inhibition of serotonin-induced Von Bezold-Jarisch reflex in rats
Format: in vivo
Conditions: rat, iv, 15 minutes prior to 5-HT, read-out: Percent Inhibition of Reflex in Rats; for inhibition at 0.001 mg/kg: 0.001 mg/kg I.V.; for inhibition at 0.003 mg/kg: 0.003 mg/kg I.V.; for inhibition at 0.01 mg/kg: 0.01 mg/kg I.V.; for inhibition at 0.03 mg/kg: 0.03 mg/kg I.V.
Text: The compounds of Formula I of this invention are long-acting, orally effective specific 5-HT₃ receptor antagonists, rendering them useful for the treatment of migraine. Because of this mechanism, the compounds of this invention should also be useful for treating emesis, motion sickness, ischemic bowel disease, diabetic gastric paresis, relaxation of the gastro-intestinal tract for instrumentation, other gastro-intestinal pain following surgery, obstetrics or as in abdominal cramps, and for treating CNS disorders such as schizophrenia and anxiety. The ability of these compounds to antagonize the effects of 5-HT was assessed by their inhibition of the Von Bezold-Jarisch reflex induced by 5-HT injected intravenously into the rat (See Paintal, Physiol. Rev., 53, 159 (1973)). When administered by the intravenous route 15 minutes prior to the administration of 5-HT, the compounds of this invention were effective in inhibiting the serotonin-induced Bezold-Jarisch reflex as summarized in Table 1 below: Table 1

Row | inhibition at 0.001 mg/kg | inhibition at 0.003 mg/kg | inhibition at 0.01 mg/kg | inhibition at 0.03 mg/kg | Structure (SMILES)
1 | 0.3% | 11% | 87% | – | Cc1cc2c(c(C(=O)N[C@H]3C[C@H]4CC[C@@H](C3)N4C)c1)OC(C)(C)C2 [Example 21, Endo-2,3-dihydro-2,2,5-trimethyl-N-(8-methyl-8-azabicyclo[3.2.1]oct-3-yl)-7-benzofurancarboxamide (Z)-2-butenedioate]
2 | – | 30% | 91% | – | CN1[C@@H]2CC[C@H]1C[C@@H](NC(=O)c1cc(Cl)cc3c1OC(C)(C)CC3)C2 [Example 61, Endo-2,2-dimethyl-6-chloro-N-(8-methyl-8-azabicyclo[3.2.1]oct-3-yl)-8-chromancarboxamide (Z)-2-butenedioate]
3 | – | 25% | 89% | – | CN1[C@@H]2CC[C@H]1C[C@@H](NC(=O)c1cc(Cl)c(N)c3c1OC(C)(C)C3)C2 [Example 56, Endo-2,3-dihydro-4-amino-5-chloro-2,2-dimethyl-N-(8-methyl-8-azabicyclo[3.2.1]oct-3-yl)-7-benzofurancarboxamide (Z)-2-butenedioate]
4 | – | – | -1% | – | COc1cc2c(c(C(=O)N[C@H]3C[C@H]4CC[C@@H](C3)N4C)c1)OC(C)(C)C2 [Example 41, Endo-2,3-dihydro-2,2-dimethyl-5-methoxy-N-(8-methyl-8-azabicyclo[3.2.1]oct-3-yl)-7-benzofurancarboxamide (Z)-2-butenedioate]
5 | – | -2% | 53% | 82% | CN1[C@@H]2CC[C@H]1C[C@@H](NC(=O)c1cccc3c1OC(C)(C)C3)C2 [Example 17, Endo-2,3-dihydro-2,2-dimethyl-N-(8-methyl-8-azabicyclo[3.2.1]oct-3-yl)-7-benzofurancarboxamide (Z)-2-butenedioate]
6 | – | 84% | 94% | – | CN1[C@@H]2CCC[C@H]1C[C@@H](NC(=O)c1cc(Cl)cc3c1OC(C)(C)C3)C2 [Example 54]
7 | – | – | -4% | – | CN1[C@@H]2CC[C@H]1C[C@@H](NC(=O)c1cccc3c1CC(C)(C)O3)C2 [Example 22, Endo-2,3-dihydro-2,2-dimethyl-N-(8-methyl-8-azabicyclo[3.2.1]oct-3-yl)-4-benzofurancarboxamide (Z)-2-butenedioate]
8 | – | – | 54% | – | CN1[C@@H]2CC[C@H]1C[C@@H](NC(=O)c1cc(O)cc3c1OC(C)(C)C3)C2 [Example 62, Endo-2,3-dihydro-5-hydroxy-2,2-dimethyl-N-(8-methyl-8-azabicyclo[3.2.1]oct-3-yl)-7-benzofurancarboxamide (Z)-2-butenedioate]
9 | – | – | 3% | – | COc1c(Cl)cc(C(=O)N[C@H]2C[C@H]3CC[C@@H](C2)N3C)c2c1CC(C)(C)O2 [Example 57, Endo-5-chloro-2,3-dihydro-4-methoxy-2,2-dimethyl-N-(8-methyl-8-azabicyclo[3.2.1]oct-3-yl)-7-benzofurancarboxamide (Z)-2-butenedioate]
10 | – | – | -8% | – | CN1[C@@H]2CC[C@H]1C[C@@H](NC(=O)c1ccc3c(c1)OC(C)(C)C3)C2 [Example 23, Endo-2,3-dihydro-2,2-dimethyl-N-(8-methyl-8-azabicyclo[3.2.1]oct-3-yl)-6-benzofurancarboxamide (Z)-2-butenedioate]
11 | – | – | -3% | – | CN1[C@@H]2CC[C@H]1C[C@@H](NC(=O)c1c(Cl)ccc3c1OC(C)(C)C3)C2 [Example 50, Endo-2,2-dimethyl-2,3-dihydro-6-chloro-N-(8-methyl-8-azabicyclo[3.2.1]oct-3-yl)-7-benzofurancarboxamide (Z)-2-butenedioate]

Further lines, the molecule ahead of its results:

Row | Structure (SMILES) | inhibition at 0.001 mg/kg | inhibition at 0.003 mg/kg | inhibition at 0.01 mg/kg | inhibition at 0.03 mg/kg
12 | Cc1cc2c(c(C(=O)O[C@H]3C[C@H]4CC[C@@H](C3)N4C)c1)OC(C)C2 (mixture of isomers) [Example 40, dl-endo-2,3-dihydro-2,5-dimethyl-7-benzofurancarboxylic acid, 8-methyl-8-azabicyclo[3.2.1]oct-3-yl ester (Z)-2-butenedioate] | 3% | 14% | 67% | –
13 | CC1Cc2cccc(C(=O)O[C@H]3C[C@H]4CC[C@@H](C3)N4C)c2O1 (mixture of isomers) [Example 35, dl-endo-2,3-dihydro-2-methyl-7-benzofurancarboxylic acid, 8-methyl-8-azabicyclo[3.2.1]oct-3-yl ester (Z)-2-butenedioate] | – | – | 31% | –
14 | CC1Cc2cccc(C(=O)N[C@H]3C[C@H]4CC[C@@H](C3)N4C)c2O1 (mixture of isomers) [Example 33, dl-endo-2,3-dihydro-2-methyl-N-(8-methyl-8-azabicyclo[3.2.1]oct-3-yl)-7-benzofurancarboxamide (Z)-2-butenedioate] | – | – | 22% | 57%
15 | CN1[C@@H]2CC[C@H]1C[C@@H](NC(=O)c1cccc3c1OC(C)(C)CC3)C2 [Example 36, Endo-2,2-dimethyl-N-(8-methyl-8-azabicyclo[3.2.1]oct-3-yl)-8-chromancarboxamide (Z)-2-butenedioate] | 4% | – | 76% | –
16 | CC1Cc2cc(Cl)cc(C(=O)O[C@H]3C[C@H]4CC[C@@H](C3)N4C)c2O1 (mixture of isomers) [Example 34, dl-endo-5-chloro-2,3-dihydro-2-methyl-7-benzofurancarboxylic acid, 8-methyl-8-azabicyclo[3.2.1]oct-3-yl ester (Z)-2-butenedioate] | 6% | 51% | 69% | –
17 | COc1cc2c(c(C(=O)O[C@H]3C[C@H]4CC[C@@H](C3)N4C)c1)OC(C)C2 (mixture of isomers) [Example 28, dl-endo-2-methyl-5-methoxy-2,3-dihydro-7-benzofurancarboxylic acid, 8-methyl-8-azabicyclo[3.2.1]-oct-3-yl ester (Z)-2-butenedioate] | – | – | 4% | –
18 | CN1[C@@H]2CC[C@H]1C[C@@H](OC(=O)c1cccc3c1OC(C)(C)C3)C2 [Example 24, Endo-2,3-dihydro-2,2-dimethyl-7-benzofurancarboxylic acid, 8-methyl-8-azabicyclo[3.2.1]oct-3-yl ester (Z)-2-butenedioate] | – | 21% | 38% | –
19 | CC1(C)CCc2cccc(C(=O)NC3CN4CCC3CC4)c2O1 (centres unmarked) [Example 53, N-(1-azabicyclo[2.2.2]oct-3-yl)-3,4-dihydro-2,2-dimethyl-2H-1-benzopyran-8-carboxamide (Z)-2-butenedioate] | 50% | 93% | – | –
20 | CN1[C@@H]2CCC[C@H]1C[C@@H](NC(=O)c1cccc3c1OC(C)(C)C3)C2 [Example 55, Endo-2,3-dihydro-2,2-dimethyl-N-(9-methyl-9-azabicyclo[3.3.1]non-3-yl)-7-benzofurancarboxamide (Z)-2-butenedioate] | – | 88% | – | –
21 | CC1(C)Cc2cccc(C(=O)NC3CN4CCC3CC4)c2O1 (centres unmarked) [Example 60, 2,3-Dihydro-2,2-dimethyl-N-(1-azabicyclo[2.2.2]oct-3-yl)-7-benzofurancarboxamide (Z)-2-butenedioate] | 25% | 87% | – | –
22 | CC1Cc2cc(F)cc(C(=O)O[C@H]3C[C@H]4CC[C@@H](C3)N4C)c2O1 (mixture of isomers) [Example 31, dl-endo-5-fluoro-2,3-dihydro-2-methyl-7-benzofurancarboxylic acid, 8-methyl-8-azabicyclo[3.2.1]oct-3-yl ester (Z)-2-butenedioate] | – | – | 32% | –
23 | CN1[C@@H]2CC[C@H]1C[C@@H](OC(=O)c1cc(Cl)c3c(c1)CC(C)(C)O3)C2 [Example 29, Endo-2,2-dimethyl-7-chloro-2,3-dihydro-5-benzofurancarboxylic acid, 8-methyl-8-azabicyclo[3.2.1]oct-3-yl ester (Z)-2-butenedioate] | – | – | -4% | –
24 | CC1Cc2cc(Cl)cc(C(=O)N[C@H]3C[C@H]4CC[C@@H](C3)N4C)c2O1 (mixture of isomers) [Example 32, dl-endo-5-chloro-2,3-dihydro-2-methyl-N-(8-methyl-8-azabicyclo[3.2.1]oct-3-yl)-7-benzofurancarboxamide (Z)-2-butenedioate] | 58% | 80% | 80% | –
25 | CC1(C)Cc2cc(Cl)cc(C(=O)NC3CN4CCC3CC4)c2O1 (centres unmarked) [Example 49, 2,3-Dihydro-5-chloro-2,2-dimethyl-N-(1-azabicyclo[2.2.2]oct-3-yl)-7-benzofurancarboxamide (Z)-2-butenedioate] | – | 40% | 89% | –
